Experiments:
Format in all cases: cell-based
[1] = biological target: T1, EGFR InsASV (V769_D770insASV) transformed Ba/F3 cells (Homo sapiens, UniProt P00533, INS769ASV); experiment: Proliferation inhibition assay, EGFR InsASV transformed Ba/F3 cells; details: MTS assay, 72 hours
T1 construct: expressed in transfected cells; host or cells: Ba/F3
Procedure: (§1) Cell growth inhibition can be assessed by MTS assay or by Cell Titer Glo Luminescent Cell viability assay (Promega®). Cells are seeded and grow in culture plates before they are exposed to representative compounds of the application for various duration. The viability of the cells are then assessed. […] The growth curves can be fitted using a nonlinear regression model with sigmoidal dose response.
(§2) Cell growth inhibition was assessed by MTS assay for Ba/F3, DFCI58-229, and DFCI127c cells, or by Cell Titer Glo Luminescent Cell viability assay (Promega®) for DFC1362JC cells, 3000 Ba/F3 cells were seeded for per well in 96-well plates, and were exposed to representative compounds of the application (3.3 nM to 10 μM) for 72 hours. For DFCI58-229, DFCI127c, and DFC1362JC cells, 5000 cells were seeded per well. All experimental points included 6 to 12 wells. […] The growth curves were fitted using a nonlinear regression model with sigmoidal dose response.
(§3) Activities of representative compounds of the present application in inhibiting EGFR and HER2 were tested by MTS assay (for Ba/F3 cell, DFCI58-229 cell, and DFCI127c cells) or by CellTiter-Glot luminescent cell viability assay (for DFCI362JC cells). For assays with Ba/F3 cells, 3000 cells were seeded for per well in 96-well plates and were exposed to indicated compounds with a concentration of 3.3 to 10 μM for 72 hours. For assays with DFCI58-229 cell, DFCI127c cell, or DFCI362JC cell, 5000 cells were seeded per well in 96-well plates and were exposed to indicated compounds with a concentration of 3.3 to 10 μM for 72 hours.

[2] = biological target: T2, EGFR InsGY (D770delinsGY) transformed Ba/F3 cells (Homo sapiens, UniProt P00533, D770Y/INS769G); experiment: Proliferation inhibition assay, EGFR InsGY transformed Ba/F3 cells; details: MTS assay, 72 hours
T2 construct: expressed in transfected cells; host or cells: Ba/F3
Procedure: as §1, §2, §3

[3] = biological target: T3, HER2 InsYVMA (A775_G776insYVMA) transformed Ba/F3 cells (Homo sapiens, UniProt P04626, INS775YVMA); experiment: Proliferation inhibition assay, HER2 InsYVMA transformed Ba/F3 cells; details: MTS assay, 72 hours
T3 construct: expressed in transfected cells; host or cells: Ba/F3
Procedure: as §1, §2, §3

[4] = biological target: T4, EGFR InsNPG (D770_N771insNPG) transformed Ba/F3 cells (Homo sapiens, UniProt P00533, INS770NPG); experiment: Proliferation inhibition assay, EGFR InsNPG transformed Ba/F3 cells; details: MTS assay, 72 hours
T4 construct: expressed in transfected cells; host or cells: Ba/F3
T4 sequence (P00533 with tags, fused parts or gaps INS770NPG): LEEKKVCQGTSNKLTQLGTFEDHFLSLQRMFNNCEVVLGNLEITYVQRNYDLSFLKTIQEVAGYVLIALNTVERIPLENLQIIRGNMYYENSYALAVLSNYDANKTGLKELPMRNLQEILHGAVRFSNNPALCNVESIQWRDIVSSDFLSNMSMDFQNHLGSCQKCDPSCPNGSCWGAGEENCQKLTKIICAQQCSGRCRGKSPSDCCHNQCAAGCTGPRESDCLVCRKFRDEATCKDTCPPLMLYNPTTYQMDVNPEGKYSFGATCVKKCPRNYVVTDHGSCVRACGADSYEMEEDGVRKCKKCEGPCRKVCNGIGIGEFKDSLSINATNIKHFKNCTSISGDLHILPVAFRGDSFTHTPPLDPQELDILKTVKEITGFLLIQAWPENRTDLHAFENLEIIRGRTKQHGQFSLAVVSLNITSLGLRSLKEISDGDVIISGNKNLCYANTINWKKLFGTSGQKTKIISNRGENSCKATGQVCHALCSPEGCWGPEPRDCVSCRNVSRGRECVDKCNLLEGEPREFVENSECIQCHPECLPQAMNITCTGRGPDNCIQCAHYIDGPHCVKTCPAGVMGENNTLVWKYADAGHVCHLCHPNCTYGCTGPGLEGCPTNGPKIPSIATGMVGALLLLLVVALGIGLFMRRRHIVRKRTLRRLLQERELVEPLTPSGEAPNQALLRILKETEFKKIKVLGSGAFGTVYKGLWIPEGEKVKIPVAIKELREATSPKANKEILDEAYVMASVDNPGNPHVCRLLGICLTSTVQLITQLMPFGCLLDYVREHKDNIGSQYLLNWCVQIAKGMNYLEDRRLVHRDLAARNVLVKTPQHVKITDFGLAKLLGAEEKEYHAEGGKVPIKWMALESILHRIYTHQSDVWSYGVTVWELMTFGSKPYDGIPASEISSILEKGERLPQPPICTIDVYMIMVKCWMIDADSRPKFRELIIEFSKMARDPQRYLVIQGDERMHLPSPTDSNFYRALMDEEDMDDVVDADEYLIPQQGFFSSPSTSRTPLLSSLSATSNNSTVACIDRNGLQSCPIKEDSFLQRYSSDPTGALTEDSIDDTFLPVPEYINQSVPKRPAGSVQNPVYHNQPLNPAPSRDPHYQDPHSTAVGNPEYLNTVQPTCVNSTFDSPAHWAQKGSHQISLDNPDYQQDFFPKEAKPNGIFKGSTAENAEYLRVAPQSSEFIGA
Procedure: as §1, §2, §3

[5] = biological target: T5, HER2 InsVC (G776delinsVC) transformed Ba/F3 cells (Homo sapiens, UniProt P04626, G776C/INS775V); experiment: Proliferation inhibition assay, HER2 InsVC transformed Ba/F3 cells; details: MTS assay, 72 hours, Table 9 key
T5 construct: expressed in transfected cells; host or cells: Ba/F3
Procedure: as §1, §2, §3

[6] = biological target: T6, HER2 InsWLV transformed Ba/F3 cells (Homo sapiens, UniProt P04626, INS773WL/M774V); experiment: Proliferation inhibition assay, HER2 InsWLV transformed Ba/F3 cells; details: MTS assay, 72 hours
T6 construct: expressed in transfected cells; host or cells: Ba/F3
T6 sequence (P04626 with tags, fused parts or gaps INS773WL/M774V): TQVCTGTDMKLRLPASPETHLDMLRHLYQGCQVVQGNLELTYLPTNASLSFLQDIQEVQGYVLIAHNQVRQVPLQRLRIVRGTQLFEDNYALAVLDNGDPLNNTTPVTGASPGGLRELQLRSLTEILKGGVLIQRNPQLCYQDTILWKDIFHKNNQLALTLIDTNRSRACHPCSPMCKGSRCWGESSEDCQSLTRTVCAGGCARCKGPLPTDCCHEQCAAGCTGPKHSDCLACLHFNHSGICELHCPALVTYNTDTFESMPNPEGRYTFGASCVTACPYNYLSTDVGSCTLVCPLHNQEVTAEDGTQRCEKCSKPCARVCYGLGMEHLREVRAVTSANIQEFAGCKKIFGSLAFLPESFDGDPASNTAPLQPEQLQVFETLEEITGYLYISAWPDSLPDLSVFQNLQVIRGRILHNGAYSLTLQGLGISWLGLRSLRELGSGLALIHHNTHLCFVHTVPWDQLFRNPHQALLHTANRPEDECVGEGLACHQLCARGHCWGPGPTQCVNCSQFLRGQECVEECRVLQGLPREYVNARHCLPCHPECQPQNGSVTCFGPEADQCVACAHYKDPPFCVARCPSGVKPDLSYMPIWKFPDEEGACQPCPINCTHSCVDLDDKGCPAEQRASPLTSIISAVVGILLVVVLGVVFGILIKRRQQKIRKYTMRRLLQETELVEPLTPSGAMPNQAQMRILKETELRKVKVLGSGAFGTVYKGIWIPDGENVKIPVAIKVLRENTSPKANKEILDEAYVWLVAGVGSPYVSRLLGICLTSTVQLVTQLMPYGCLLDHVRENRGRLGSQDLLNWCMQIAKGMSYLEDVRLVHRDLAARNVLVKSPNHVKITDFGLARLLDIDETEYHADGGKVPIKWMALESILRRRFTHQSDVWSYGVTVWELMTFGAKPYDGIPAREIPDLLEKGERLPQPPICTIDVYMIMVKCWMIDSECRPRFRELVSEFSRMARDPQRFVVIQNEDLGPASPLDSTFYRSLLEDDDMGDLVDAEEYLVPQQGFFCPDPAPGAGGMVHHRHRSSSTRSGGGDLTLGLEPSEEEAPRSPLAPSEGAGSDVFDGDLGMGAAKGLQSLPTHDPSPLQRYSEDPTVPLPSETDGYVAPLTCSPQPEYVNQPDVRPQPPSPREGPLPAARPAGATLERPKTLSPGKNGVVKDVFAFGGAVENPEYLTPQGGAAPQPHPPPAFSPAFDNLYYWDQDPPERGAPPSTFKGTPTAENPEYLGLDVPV
Procedure: as §1, §2, §3

[7] = biological target: T7, wild-type EGFR transformed Ba/F3 cells (Homo sapiens, UniProt P00533); experiment: Proliferation inhibition assay, wild-type EGFR transformed Ba/F3 cells; details: MTS assay, 72 hours
T7 construct: expressed in transfected cells; host or cells: Ba/F3
T7 sequence (P00533 25-1210): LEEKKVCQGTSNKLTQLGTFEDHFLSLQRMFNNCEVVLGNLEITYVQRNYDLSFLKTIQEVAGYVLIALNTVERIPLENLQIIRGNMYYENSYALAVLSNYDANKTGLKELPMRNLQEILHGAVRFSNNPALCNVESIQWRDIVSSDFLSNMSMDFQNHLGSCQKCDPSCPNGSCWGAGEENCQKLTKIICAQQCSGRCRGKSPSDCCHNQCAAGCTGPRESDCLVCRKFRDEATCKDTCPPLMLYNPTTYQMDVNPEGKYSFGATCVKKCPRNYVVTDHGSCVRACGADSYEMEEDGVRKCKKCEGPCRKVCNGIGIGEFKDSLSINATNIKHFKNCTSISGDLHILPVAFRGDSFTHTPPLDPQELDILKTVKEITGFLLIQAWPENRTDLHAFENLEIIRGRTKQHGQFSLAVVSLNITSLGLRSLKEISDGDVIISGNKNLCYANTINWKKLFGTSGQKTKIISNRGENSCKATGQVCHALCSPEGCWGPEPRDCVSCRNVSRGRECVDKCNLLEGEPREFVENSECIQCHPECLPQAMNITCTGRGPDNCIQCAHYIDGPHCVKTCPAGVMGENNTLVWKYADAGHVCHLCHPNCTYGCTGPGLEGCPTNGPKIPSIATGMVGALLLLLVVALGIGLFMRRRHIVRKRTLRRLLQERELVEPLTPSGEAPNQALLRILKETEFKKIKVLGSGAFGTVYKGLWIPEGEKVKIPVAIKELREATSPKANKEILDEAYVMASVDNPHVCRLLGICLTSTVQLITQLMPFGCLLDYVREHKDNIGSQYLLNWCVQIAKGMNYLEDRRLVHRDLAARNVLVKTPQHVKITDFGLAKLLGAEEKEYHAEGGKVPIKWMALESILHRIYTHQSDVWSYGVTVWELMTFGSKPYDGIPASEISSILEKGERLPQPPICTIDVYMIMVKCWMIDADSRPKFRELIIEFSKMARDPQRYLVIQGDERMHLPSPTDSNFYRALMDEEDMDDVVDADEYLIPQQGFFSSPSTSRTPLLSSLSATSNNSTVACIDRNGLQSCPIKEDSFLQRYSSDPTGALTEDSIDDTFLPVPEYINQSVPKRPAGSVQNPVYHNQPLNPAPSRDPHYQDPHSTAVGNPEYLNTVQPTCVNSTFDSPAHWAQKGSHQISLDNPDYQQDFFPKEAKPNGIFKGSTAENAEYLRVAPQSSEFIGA
Procedure: as §1, §2, §3

[8] = biological target: T8, wild-type HER2 transformed Ba/F3 cells (Homo sapiens, UniProt P04626); experiment: Proliferation inhibition assay, wild-type HER2 transformed Ba/F3 cells; details: MTS assay, 72 hours
T8 construct: expressed in transfected cells; host or cells: Ba/F3
Procedure: as §1, §2, §3

[9] = biological target: T9, EGFR InsH transformed Ba/F3 cells (Homo sapiens, UniProt P00533, DUP773-773); experiment: Proliferation inhibition assay, EGFR InsH transformed Ba/F3 cells; details: MTS assay, 72 hours
T9 construct: expressed in transfected cells; host or cells: Ba/F3
Procedure: as §1, §2, §3

[10] = biological target: T10, EGFR InsSVD (D770_N771insSVD) transformed Ba/F3 cells (Homo sapiens, UniProt P00533, INS770SVD); experiment: Proliferation inhibition assay, EGFR InsSVD transformed Ba/F3 cells; details: MTS assay, 72 hours
T10 construct: expressed in transfected cells; host or cells: Ba/F3
Procedure: as §1, §2, §3

[11] = biological target: T11, EGFR InsHH (Y764_V765insHH) transformed Ba/F3 cells (Homo sapiens, UniProt P00533, INS764HH); experiment: Proliferation inhibition assay, EGFR InsHH transformed Ba/F3 cells; details: MTS assay, 72 hours
T11 construct: expressed in transfected cells; host or cells: Ba/F3
Procedure: as §1, §2, §3

[12] = biological target: T12, HER2 InsGSP (P780_Y781insGSP) transformed Ba/F3 cells (Homo sapiens, UniProt P04626, INS780GSP); experiment: Proliferation inhibition assay, HER2 InsGSP transformed Ba/F3 cells; details: MTS assay, 72 hours, Table 9 key
T12 construct: expressed in transfected cells; host or cells: Ba/F3
Procedure: as §1, §2, §3

T1 sequence (P00533 with tags, fused parts or gaps INS769ASV): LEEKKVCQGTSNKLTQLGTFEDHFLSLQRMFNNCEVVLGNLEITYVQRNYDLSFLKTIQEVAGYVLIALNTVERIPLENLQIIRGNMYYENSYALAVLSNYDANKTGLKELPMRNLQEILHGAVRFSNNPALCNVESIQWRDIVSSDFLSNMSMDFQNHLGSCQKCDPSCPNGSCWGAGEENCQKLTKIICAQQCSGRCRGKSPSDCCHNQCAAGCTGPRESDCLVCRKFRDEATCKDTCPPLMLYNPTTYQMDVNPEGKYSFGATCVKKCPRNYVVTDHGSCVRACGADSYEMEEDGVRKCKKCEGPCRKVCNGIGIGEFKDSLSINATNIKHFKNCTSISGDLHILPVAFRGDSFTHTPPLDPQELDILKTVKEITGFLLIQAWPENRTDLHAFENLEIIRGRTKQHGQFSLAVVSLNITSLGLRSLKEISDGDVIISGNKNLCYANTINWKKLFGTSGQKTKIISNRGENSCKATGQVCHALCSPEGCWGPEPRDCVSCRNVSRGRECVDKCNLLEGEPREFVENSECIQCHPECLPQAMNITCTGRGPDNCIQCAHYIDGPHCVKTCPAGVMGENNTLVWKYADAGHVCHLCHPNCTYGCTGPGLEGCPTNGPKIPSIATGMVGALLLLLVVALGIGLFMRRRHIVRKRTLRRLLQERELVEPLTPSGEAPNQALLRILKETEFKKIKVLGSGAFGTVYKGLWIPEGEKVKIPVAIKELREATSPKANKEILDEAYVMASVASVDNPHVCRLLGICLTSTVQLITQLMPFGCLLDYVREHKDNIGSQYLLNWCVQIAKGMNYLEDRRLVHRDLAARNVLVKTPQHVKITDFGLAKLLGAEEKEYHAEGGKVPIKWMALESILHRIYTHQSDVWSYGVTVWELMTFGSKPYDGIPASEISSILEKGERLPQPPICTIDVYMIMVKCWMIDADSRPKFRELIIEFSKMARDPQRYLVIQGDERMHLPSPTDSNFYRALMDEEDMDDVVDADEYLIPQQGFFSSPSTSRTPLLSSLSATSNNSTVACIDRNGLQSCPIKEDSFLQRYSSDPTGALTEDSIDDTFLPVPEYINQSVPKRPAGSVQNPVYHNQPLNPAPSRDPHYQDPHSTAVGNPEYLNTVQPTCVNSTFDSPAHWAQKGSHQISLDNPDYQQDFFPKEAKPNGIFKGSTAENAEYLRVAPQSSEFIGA

Row | EC50 [1] | EC50 [2] | EC50 ([3]; Table 9 key) | EC50 [4] | EC50 [5] | EC50 ([6]; Table 9 key) | EC50 [7] | EC50 ([8]; Table 9 key) | EC50 [9] | EC50 [10] | EC50 [11] | EC50 [12] | EC50 ([3]; Table 10 key) | EC50 ([6]; Table 10 key) | EC50 ([8]; Table 10 key) | Compound
1 | < 200 nM | < 200 nM | < 100 nM | < 200 nM | 100 to 250 nM | < 100 nM | < 200 nM | < 100 nM | < 200 nM | < 200 nM | < 200 nM | < 100 nM | – | – | – | C=CC(=O)Nc1cccc(-n2c(=O)c(Oc3ccc(F)cc3F)cc3cnc(Nc4ccc(N5CCN(C)CC5)cc4OC)nc32)c1 [Compound 6]
2 | < 200 nM | < 200 nM | < 100 nM | < 200 nM | < 100 nM | < 100 nM | < 200 nM | < 100 nM | < 200 nM | < 200 nM | < 200 nM | < 100 nM | – | – | – | C=CC(=O)Nc1cccc(-n2c(=O)c(Oc3ccc(F)cc3F)cc3cnc(Nc4cn(C)nc4OCC)nc32)c1 [Compound 8]
3 | < 200 nM | 200 to 600 nM | < 100 nM | < 200 nM | 250 to 500 nM | 250 to 500 nM | 200 to 600 nM | < 100 nM | 600 to 1000 nM | 200 to 600 nM | 200 to 600 nM | < 100 nM | – | – | – | CN(C)C/C=C/C(=O)Nc1cccc(-n2c(=O)c(Oc3ccc(F)cc3F)cc3cnc(Nc4cnn(C)c4)nc32)c1 [Compound 10]
4 | < 200 nM | < 200 nM | < 100 nM | < 200 nM | 100 to 250 nM | 100 to 250 nM | < 200 nM | < 100 nM | 200 to 600 nM | < 200 nM | < 200 nM | < 100 nM | – | – | – | C=CC(=O)Nc1cccc(-n2c(=O)c(Oc3ccc(F)cc3F)cc3cnc(Nc4ccc(N5CCC(N6CCN(C)CC6)CC5)cc4)nc32)c1 [Compound 7]
5 | – | < 200 nM | – | – | – | – | < 200 nM | – | 600 to 1000 nM | < 200 nM | – | – | < 200 nM | < 200 nM | < 200 nM | C=CC(=O)Nc1cc(Nc2ncc3cc(Oc4ccc(F)cc4F)c(=O)n(C)c3n2)cnc1N(C)CCN(C)C [Compound 113]
6 | < 200 nM | < 200 nM | < 100 nM | < 200 nM | < 100 nM | < 100 nM | < 200 nM | < 100 nM | < 200 nM | < 200 nM | < 200 nM | < 100 nM | – | – | – | C=CC(=O)Nc1cc(Nc2ncc3cc(Oc4ccc(F)cc4F)c(=O)n(C)c3n2)c(OC)cc1N(C)CCN(C)C [Compound 29, N-(5-((6-(2,4-difluorophenoxy)-8-methyl-7-oxo-7,8-dihydropyrido[2,3-d]pyrimidin-2-yl)amino)-2-((2-(dimethylamino)ethyl)(methyl)amino)-4-methoxyphenyl)acrylamide]
7 | – | > 1000 nM | – | – | – | – | > 1000 nM | – | > 1000 nM | > 1000 nM | – | – | > 1000 nM | > 1000 nM | > 1000 nM | CCC(=O)Nc1cc(Nc2ncc3cc(Oc4ccc(F)cc4F)c(=O)n(C)c3n2)c(OC)cc1N(C)CCN(C)C [Compound 111]
8 | – | < 200 nM | – | – | – | – | < 200 nM | – | 200 to 600 nM | < 200 nM | – | – | < 200 nM | < 200 nM | < 200 nM | C=CC(=O)Nc1cc(Nc2ncc3cc(Oc4c(F)cc(F)cc4F)c(=O)n(C)c3n2)c(OC)cc1N(C)CCN(C)C [Compound 136]
9 | – | < 200 nM | – | – | – | – | < 200 nM | – | 600 to 1000 nM | < 200 nM | – | – | < 200 nM | 200 to 600 nM | < 200 nM | CC#CC(=O)Nc1cc(Nc2ncc3cc(Oc4ccc(F)cc4F)c(=O)n(C)c3n2)c(OC)cc1N(C)CCN(C)C [Compound 125]
